Reference: PubChem BioAssay AID179 (DTP/NCI, 2004)
Several values for one entry are separate records, joined by “and”; a condition that tells them apart may be missing. Identical values can stand only once. Activity calls are given as the source filed them.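 Rule for the calls: active = compounds giving half or more protection of infected cells from virus-caused growth loss, again on retest; inactive = the rest.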

Test system: CEM cells HIV-1 protection, formazan growth assay
Assay: NCI AIDS Antiviral Assay
Conditions: for IC50: measured here: growth of uninfected CEM cells
Method in brief: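 Soluble formazan readout of cell growth; CEM cells ± HIV-1; 5 drug concs. ≥50% protection → retest; ≥50% again = moderately active; reproducible 100% = confirmed active.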

Compound	EC50	IC50	outcome
CCc1c(OC)oc(CCCCCCCCCC(C)C(C)=O)c(C)c1=O (stereo not given)	> 25.1 µM	0.0372 µM	–
C#CCN(N=O)C(=O)NCCCC(NC(C)=O)C(=O)NCc1ccccc1 (stereo not given)	> 676 µM	51.3 µM	–
O=[N+]([O-])/C(C=Nc1ccccc1)=C/Nc1ccccc1	> 200 µM	105 µM	–
CC[N+](CC)=c1cc2oc3cc(N(C)C)ccc3nc-2cc1C	> 200 µM	16.2 µM	–
CNC(=O)N(CCC#N)[C@H]1CCCC[C@@H]1N(C(=O)NC)c1ccccc1	> 200 µM	> 200 µM	–
C=C1CC(C)(COc2cc(=O)oc3ccccc23)OC1=O (stereo not given)	> 200 µM	1.74 µM	–
CCOC(=O)/C=C/CC(C)(C)COC(C)=O	–	–	inactive
COc1ccc(-c2c(O)c3ccc(OC)cc3oc2=O)cc1	> 200 µM	155 µM	–
O=c1[nH]c(=O)n(COC(CO)CO)cc1-c1ccccc1	> 200 µM	> 200 µM	–
N=C(N)N	> 1000 µM	> 1000 µM	–
O=c1n(-c2ccccc2)c(=O)n2n1Cc1cc3ccccc3cc1-2	> 79.4 µM	> 79.4 µM	–
COc1cc(O)c2c(c1O)C(=O)c1cc(C)ncc1C2=O	–	–	inactive
COc1cc(N=Nc2ccccc2C(=O)O)cc(/C=N/NC(=O)c2cccnc2)c1O	> 12.3 µM	> 12.3 µM	–
CCOC(=O)CSc1cc(C)c2c(N)c(C(=O)OCC)sc2n1	> 72.4 µM	> 72.4 µM	–
O=C(ONC(=O)[C@H]1C2C=CC(C2)[C@@H]1C(=O)NOC(=O)c1ccccc1)c1ccccc1	> 200 µM	5.37 µM	–
CCOC(=O)Nc1ccc2nc(-c3cscn3)[nH]c2c1	> 457 µM	1.66 µM	–
COc1cc2c(cc1OC)C(=O)N1CCCC1C(=O)S2 (stereo not given)	–	–	inactive
Cn1nc(S(N)(=O)=O)s/c1=N/C(N)=S	> 200 µM	> 200 µM	–
O=C(CC(=O)c1ccccc1)CC(=O)c1ccccc1	> 19.5 µM	> 19.5 µM	–
CS(=O)(=O)N(N(CCCl)S(=O)(=O)c1ccccc1)S(C)(=O)=O	> 126 µM	79.4 µM	–
O=C(O)CC[N+]1=CCC(c2ccccc2)(c2ccccc2)O1	> 832 µM	> 832 µM	–
CC12O[C@H](c3ccccc3)[C@H](c3ccccc3)N1C(=O)C1(C(=O)OCc3ccccc3)CC12 (stereo not given in full)	> 22.9 µM	> 22.9 µM	–
Nc1nc(Cl)cc(NCC2(CO)COC2)n1	> 200 µM	> 200 µM	–
CO/N=C1/c2sccc2[C@H](NC(=O)C(F)(F)F)[C@@H]1O	> 200 µM	> 200 µM	–

Compound	EC50	IC50	outcome
O=C1NC2(NC(=O)C1=O)Nc1ccccc1S2	> 28.8 µM	> 28.8 µM	–
O=C(CC(C(=O)c1cccs1)c1ccc2c(c1)OCO2)c1ccccc1 (stereo not given)	> 200 µM	> 200 µM	–
CC1(CO)NC(C(=O)O)Cc2c1[nH]c1ccccc21 (stereo not given)	> 200 µM	> 200 µM	–
Nc1ncnc2c1ncn2C1CC(O)C(CO)(C(F)(F)F)O1 (stereo not given)	> 200 µM	61.7 µM	–
CC1=CC(=O)CCC2(C)C1CC[C@@H]2OC=O (stereo not given in full)	–	–	inactive
C=C(C)S(=O)(=O)c1ccccc1	–	–	inactive
COC(=O)/C=c1\sc2n(c1=O)CCCCN=2	> 417 µM	240 µM	–
CN(c1ccc(Cl)cc1)S(=O)(=O)c1ccc([N+](=O)[O-])cc1	> 200 µM	> 200 µM	–
O=C1Nc2ccccc2C12OCCS2 (stereo not given)	–	–	inactive
OC1=CN=COc2ccccc21	> 813 µM	479 µM	–
CCCCNC(=S)/N=C/c1c(O)c2ccccc2oc1=O	> 200 µM	182 µM	–
CCOC(=O)C1(C/C=C\CBr)CCCCCCCCCCC1=O (stereo not given)	> 200 µM	0.933 µM	–
COc1ccc(NC(=S)N/N=C/c2ccccn2)cc1	> 2 µM	0.316 µM	–
CCOC(=O)c1c(SC)nc(-c2ccc(Cl)cc2)sc1=N	> 200 µM	12 µM	–
CCCC(O)c1cn(C(NC(=O)c2ccccc2)P(=O)(OCC)OCC)nn1 (stereo not given)	> 200 µM	> 200 µM	–
CC1=CCN(C2CC(C)C(=O)N2)C1=O (stereo not given)	–	–	inactive
O=c1[nH]cnc2c1ccn2C1OC(CO)C(O)C1O (stereo not given)	> 20 µM	2.04 µM	–
O=C(O)\C=C/C=C/C=C/C=C/C(=O)O	126 µM	135 µM	–
CCN=C(N)SCCS(=O)(=O)O	> 200 µM	> 200 µM	–
Brc1ncnc2c1ncn2C1CCCS1 (stereo not given)	–	–	inactive
CCc1nnc2c3cc4ccccc4n3cnn12	> 151 µM	> 151 µM	–
CCOC(=O)C1=CCOc2cc(N(C)C)ccc21	> 200 µM	105 µM	–
COc1cccc2c(NNc3ccc(Cl)cc3)c3ccc([N+](=O)[O-])cc3nc12	> 200 µM	12.3 µM	–
COc1ccc(C(C)NNC(=O)c2ccncc2)cc1F (stereo not given)	> 200 µM	112 µM	–

Compound	EC50	IC50	outcome
CCC[N+]1=C/c2ccccc2OC(=O)/C=C\1[O-]	> 200 µM	> 200 µM	–
C=CCC(C)(C(=O)NCCC)C(=O)c1ccccc1O (stereo not given)	–	–	inactive
COC(=O)C1CCCN1C(=O)OC(C)(C)C (stereo not given)	57.5 µM	> 200 µM	–
CC(=O)[O][Hg][CH2]C(O)Cn1c(=O)c2c(ncn2C)n(C)c1=O (stereo not given)	–	–	inactive
COc1ccc(C2Oc3ccccc3C(=O)C2N)cc1 (stereo not given)	> 200 µM	93.3 µM	–
COc1cc2c(cc1OC)C1CC(=O)C(CCCCCCC3CN4CCc5cc(OC)c(OC)cc5C4CC3=O)CN1CC2 (stereo not given)	–	–	inactive
CC(C)CCC[C@@H](C)C1CCC2[C@@H]3CCC4CC(=C(c5cc(Cl)c(O)c(C(=O)O)c5)c5cc(Cl)c(O)c(C(=O)O)c5)CC[C@]4(C)C3CC[C@@]21C (stereo not given in full)	47.9 µM	148 µM	–
Nn1c(-c2ccccc2Cl)nc2ccccc2c1=O	–	–	inactive
CC(=O)N1CCC23c4ccccc4N(C)C2CC(=O)CC13 (stereo not given)	> 871 µM	> 871 µM	–
CCOC(=O)c1nc2ccc(C(F)(F)F)cc2nc1Oc1ccc(C(=O)OC)cc1	> 200 µM	> 200 µM	–
CCOC(=O)/C=C/[C@H](O)[C@@H](O)/C=C/C(=O)OCC	> 200 µM	17 µM	–
CCCCCCCCCCCCCCCCOCC(Cl)CP(=O)(O)OP(=O)(O)OCC1OC(n2cnc3c(N)ncnc32)C(O)C1O (stereo not given)	> 100 µM	> 100 µM	–
S=C(NCCSSCCNC(=S)Nc1ccccc1)Nc1ccccc1	> 200 µM	35.5 µM	–
Cc1c2ccccc2nc(CCl)[n+]1[O-]	> 200 µM	3.24 µM	–
COc1cc2c(cc1O)C1(C(=O)c3ccc4c(c3[C@H]1O)OCO4)N(C)CC2 (stereo not given in full)	–	–	inactive
O=C(O)c1c(O)ccc(N=Nc2ccc(CCc3ccc(N=Nc4ccc(O)c(C(=O)O)c4O)cc3S(=O)(=O)O)c(S(=O)(=O)O)c2)c1O	> 162 µM	97.7 µM	–
Cc1c(CCCl)c(Cl)n2c(nc3ccccc32)c1C#N	> 33.9 µM	0.537 µM	–
CC1=CC(C)(C)[C@H]2O[C@@]3(O)C[C@]4(C)[C@H]5C[C@@](C(C)C)(O[C@H]4c4ccoc4)O[C@H]4[C@]5(C3)O[C@@]1(O)[C@]24O	> 100 µM	> 100 µM	–
CC([C@H]1CCC2C3CCC4CC5(CC[C@]4(C)C3CC[C@@]21C)c1ccccc1C(=O)N5C)N(C)C (stereo not given in full)	> 8.13 µM	> 8.13 µM	–
O=C(O)CCC(=O)NC(c1ccccc1)(c1ccccc1)c1ccccc1	> 200 µM	> 200 µM	–
C=C/C(C)=C/[C@H](C)C(=O)C[C@H](O)CC1CC(=O)NC(=O)C1	–	–	inactive
CC(=O)NCCc1c[nH]c2ccc(Cl)cc12	> 200 µM	195 µM	–
CCN(CC)C(=S)SCC(=O)Nc1nc2c(s1)CCCC2	> 20.9 µM	> 20.9 µM	–
O=C1OC2(O)c3ccccc3C(=O)N2N2CCCCC12 (stereo not given)	> 646 µM	> 646 µM	–

Compound	EC50	IC50	outcome
CC(=O)NC1(C)CC[C@H]2CC1C(C)=NC2(C)C (stereo not given in full)	> 1050 µM	> 1050 µM	–
CCOC(=O)[C@H]1Nc2ccc(Cl)cc2[C@H]2c3ccccc3O[C@H]21	> 30.2 µM	> 30.2 µM	–
[O]=[Sb][c]1ccc(Br)cc1	> 200 µM	4.57 µM	–
COc1ccc(OC)c(NC(=O)C(=O)C(C(=O)c2ccccc2F)C2OC(=O)c3ccccc32)c1 (stereo not given)	> 275 µM	13.2 µM	–
Nc1nc(-c2ccccc2)nc(N)c1N=O	> 200 µM	2.57 µM	–
COc1cccc2c1C(c1cccc3ccccc13)OC2=O (stereo not given)	> 45.7 µM	7.94 µM	–
COc1ccccc1C(=O)Nc1ccc(Cl)c(C(=O)OC(C)C)c1	–	–	active
N=C(N)SSC(=N)N	70.8 µM	> 100 µM	–
N#C/C(=C\c1ccc(O)c(O)c1)C(=O)NCCCNC(=O)/C(C#N)=C/c1ccc(O)c(O)c1	> 200 µM	66.1 µM	–
C1=C(c2ccccc2)C(N2CCOCC2)Oc2ccccc21 (stereo not given)	> 200 µM	89.1 µM	–
N#CC(C#N)=C1NN=C(Cl)c2ccccc21	–	–	inactive
COC(=O)[C@@H]1C=C[C@H](OC2OC(COC(C)=O)C(OC(C)=O)C(OC(C)=O)C2OC(C)=O)n2c(=O)n(-c3ccccc3)c(=O)n21 (stereo not given in full)	> 200 µM	1.07 µM	–
COC(=O)[C@H](Cc1ccccc1)NC(=O)N(CCN(CCC#N)C(=O)N[C@H](C(=O)OC)C(C)C)c1ccccc1	> 200 µM	83.2 µM	–
c1ccc2c(c1)oc1cc3c(cc12)nnc1cccn13	> 200 µM	> 200 µM	–
COc1nc(N)c(NC2OCC(O)C(O)C2O)c(=O)n1C (stereo not given)	195 µM and 182 µM and > 200 µM	603 µM and 224 µM and > 200 µM	–
O=c1cnn(C2OC(CO)C(O)C(F)C2O)c(=O)[nH]1 (stereo not given)	> 200 µM	> 200 µM	–
CNC(=O)Nc1cc2c3c(c1)CCCN3CCC2	135 µM	178 µM	–
CC(=O)Nc1ccc(S(=O)(=O)NN=C2CCCC2)cc1	> 851 µM	708 µM	–
CCOC(NC(=O)CC)(C(F)(F)F)C(F)(F)F	–	–	inactive
O=c1[nH]c2cc(Cl)ccc2nc1/C(=N\O)C(O)c1cccc([N+](=O)[O-])c1 (stereo not given)	> 661 µM	646 µM	–
COC1OC2COC(c3ccccc3)OC2C2OC(=S)OC12 (stereo not given)	–	–	inactive
NC(=O)CC(N)C(=O)NC(Cc1ccccc1)C(=O)NC(Cc1ccccc1)NC(=O)C(Cc1c[nH]c2ccccc12)C(=O)O (stereo not given)	> 200 µM	> 200 µM	–
